Measurements: patent US11350582B2, “Plant varieties by application of endocides” (Stephen F. Austin State University, priority 2015, dated 2022)

Tests used:
[1] = test system: Azolla caroliniana; experiment: Greenhouse spray test on Carolina mosquito fern; assay type: in vivo; conditions: 0.5% concentration; 10 mL spray; fifth day
Experimental: 4-Hydroxybenzoic and 3,4-dihydroxybenzoic acids were also tested against Carolina mosquito fern (Azolla caroliniana Willd.) (family Azollaceae). Six containers (14×15 cm, 0.68 L) with full cover of A. caroliniana were included in the tests: two without any treatments as controls, two were sprayed with 10 mL 0.5% 4-hydroxybenzoic acid each, and the others were sprayed with 10 mL 0.5% 3,4-dihydroxybenzoic acid each. Plant growth and survival status were documented and photographed in each treatment on the fifth day after the treatment.

[2] = test system: S. molesta; experiment: Mutation induction in giant salvinia by spray, greenhouse (Example 12); assay type: in vivo, Salvinia molesta
Experimental: General Experimental Procedure: 4-hydroxybenzoic acid (>95%, HPLC analysis) and 3,4-dihydroxybenzoic acid (>95%) were isolated from S. molesta matter by using the method as described in Li, Wang et al. 2013. 4-Hydroxybenzoic and 3,4-dihydroxybenzoic acids were prepared as 50 mL experimental solution with NANOPURE™ water at eight concentrations, 0.015, 0.031, 0.063, 0.125, 0.25, 0.5, 1, and 2%, respectively.
In each of 17 containers (14×15 cm, 0.68 L each), nine healthy and untreated living plants of S. molesta were cultured in tap water in a greenhouse (30° C. during the day time and 20° C. at night). The nine plants included three type I plants (approximately 1 g in fresh weight per plant), three type II plants (approximately 2 g per plant), and three type III plants (approximately 4 g per plant). The plants in each container were sprayed with 10 mL NANOPURE™ water or an experimental compound at various concentrations. Plant growth, morphological variation, and survival status were documented and photographed in each treatment for six weeks after the treatment. Then any new developed plants in each container were transferred into a container with new water for 10 weeks of culture observations.

[3] = test system: king protea explants; conditions: MS medium culture, cited from earlier work
[4] = test system: S. molesta; experiment: Field test in isolated ponds, plots on water surface and soils (Example 17); assay type: in vivo, Salvinia molesta; conditions: 0.5% 4-hydroxybenzoic acid; for % of Living Biomass/Total Biomass (mean ± s.d.), Type I and II Plants on Water Surface / % of Living Biomass/Total Biomass (mean ± s.d.), Type III Plants on Soils: 12 days
Experimental: General Experimental Procedure: The field experiments were conducted in isolated ponds in east Texas, United States. The ponds are small (each were 200-500 m^2 in size) in the hardwood forests and each was fully covered with S. molesta plants and also included least duckweed (L. minuta) and Brazillan watermeal (W. brasillensis). The area was divided by plots, each plot had 50 m^2 in area including approximately 40 m^2 of type I and II S. molesta plants on the water surface and 10 m^2 of type III S. molesta plants on soils. Each plot, except a control plot, was treated with 20 L one of the following experimental solutions by Solo 433 motorized backpack sprayer: 0.5% 4-hydroxybenzoic acid, 0.5% 4-hydroxybenzoic acid mixed with 0.25% DAWN® dish soap, 0.5% 4-hydroxybenzoic acid and 0.25% 3,4-dihydroxybenzoic acid, 0.5% 4-hydroxybenzoic acid and 0.25% 3,4-dihydroxybenzoic acid with 0.25% DAWN® dish soap, and 0.25% DAWN® dish soap. Each test condition had three replicates. 12 days after the treatments, plant growth status was photographed and the plant survival rate was measured by three 1×1 m random sample plots for floating plants on the water surface and two samples in 1×1 m random sample plots for plants on soils. Pairwise comparisons for all treatments (including Control) for living biomass were made using Tukey test at alpha=0.05, which was done using SAS (SAS 9.4).

[5] = test system: tobacco; conditions: from root exudates of tobacco; cited from earlier work
[6] = test system: taro; conditions: in vivo; cited from earlier work
[7] = test system: leaf vegetables; conditions: in vivo; cited from earlier work
[8] = test system: rhizosphere bacterial population; conditions: cited from earlier work
[9] = test system: rhizosphere fungal populations; conditions: cited from earlier work
[10] = test system: Fusarium oxysporum f. sp. niveum; conditions: cited from earlier work
[11] = test system: F. oxysporum, F. nivale, Aspergillus flavus, and A. fumigatus; conditions: cited from earlier work
[12] = test system: anthracnose pathogen and N-fixing bacteria in peanut; conditions: high concentrations; cited from earlier work
[13] = test system: Enterbacter ludwigii; conditions: cited from earlier work
[14] = 2% solution, 10 mL spray on nine plants (types I, II, III), six weeks
[15] = listed as 4-hydroxybenzoic acid

O=C(O)c1ccc(O)c(O)c1 [3,4-dihydroxybenzoic acid]
A. caroliniana eliminated [1]: 100%
mutation induction in S. molesta ([2]; 0.25, 0.5, and 1%): induced small leaf mutations
induced new growth type ([2]; 0.5% or 1%, six weeks of observation): the new plants remained as type I
survival and damage of S. molesta plants [2, 14]: killed all of the plants and no new growth was observed
effect on root mass of king protea explants ([3]; 100 mg/L): increase the root mass
effect on growth of king protea explants ([3]; 500 mg/L): inhibit growth
impacts on root growth of king protea explants (patent's reading of the cited data) [3]: no significant impacts

O=C(O)c1ccc(O)cc1 [4-Hydroxybenzoic acid]
A. caroliniana eliminated [1]: 100%
induced new growth type [4]: primarily type I and II
% of Living Biomass/Total Biomass (mean ± s.d.), Type I and II Plants on Water Surface [4]: 34.7%
% of Living Biomass/Total Biomass (mean ± s.d.), Type III Plants on Soils [4]: 14.3%
% of Living Biomass/Total Biomass (mean ± s.d.), Type I and II Plants on Water Surface [4, 15]: 34.7%
% of Living Biomass/Total Biomass (mean ± s.d.), Type III Plants on Soils [4, 15]: 14.3%
survival and damage of S. molesta plants ([2]; 0.125% or lower concentrations, six weeks): no significant damage
survival and damage of S. molesta plants ([2]; 0.25% solution, 10 mL spray on nine plants, first week): killed all floating leaves of the small plants (type I and II) and partially injured floating leaves of the type III plants
induced new growth type ([2]; 0.25% solution, six weeks): Seven plants developed cupped floating leaves (type II)
survival and damage of S. molesta plants ([2]; 0.5% solution, 10 mL spray on nine plants): killed almost all floating leaves of the nine treated plant within a week
induced new growth type ([2]; 0.5% solution, six weeks): all other newly emerged plants from axillary buds remained as type I
survival and damage of S. molesta plants ([2]; 1% solution, 10 mL spray on nine plants (types I, II, III)): all six type I or II plants were dead without new growth within two days of the treatment
induced new growth type ([2]; 1% solution, end of second week): three small plants (type I) emerged from the axillary buds of the type III plants
survival and damage of S. molesta plants [2, 14]: died and showed no new growth
activity on growth and photosynthetic rate in tobacco [5]: some inhibitory activity
inhibitory activity on the growth of taro [6]: weaker inhibitory activity than benzoic acid
inhibitory activity in growth of some leaf vegetables [7]: weaker than adipic acid
Shannon-Wiener index, rhizosphere bacterial population [8]: decrease
Shannon-Wiener index, rhizosphere fungal populations [9]: increase
mycelial growth [10]: stimulate the mycelial growth
hypha growth and spore proliferation [11]: promote the hypha growth and spore proliferation
effect on anthracnose pathogen and N-fixing bacteria [12]: inhibited
growth of Enterbacter ludwigii [13]: stimulated the growth
